Test results published in ChEMBL document CHEMBL1201862, “PubChem BioAssay data set” (2004).
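All cell lines were grown in 96-well plates and treated with compound for 48 hours. GI50 marks 50% less growth.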 The source made the active and inactive calls. Rule as the data show it: active = GI50 up to about 1.1 µM and inactive = higher.

Key:
Assay in all cases: inhibition of tumour cell growth, NCI panel, 48 h
[1] = tested on: A498
[2] = tested on: U-251
[3] = tested on: HOP-92
[4] = tested on: HCT-15
[5] = tested on: SK-MEL-5
[6] = tested on: SW-620
[7] = tested on: HCT-116
[8] = tested on: IGROV-1
[9] = tested on: SF-295
[10] = tested on: HT-29
[11] = tested on: NCI-H226
[12] = tested on: UO-31
[13] = tested on: MDA-MB-435
[14] = tested on: TK-10
[15] = tested on: COLO 205
[16] = tested on: SF-268
[17] = tested on: RXF 393
[18] = tested on: KM12
[19] = tested on: SF-539
[20] = tested on: ACHN
[21] = tested on: NCI/ADR-RES
[22] = tested on: DU-145
[23] = tested on: EKVX
[24] = tested on: OVCAR-5
[25] = tested on: A549
[26] = tested on: MDA-N
[27] = tested on: SNB-19
[28] = tested on: NCI-H23
[29] = tested on: SNB-75
[30] = tested on: SN12C
[31] = tested on: OVCAR-4
[32] = tested on: OVCAR-8
[33] = tested on: PC-3
[34] = tested on: M14
[35] = tested on: CAKI-1
[36] = tested on: OVCAR-3
[37] = tested on: SK-MEL-28
[38] = tested on: MDA-MB-231
[39] = tested on: SK-OV-3
[40] = tested on: NCI-H522
[41] = tested on: 786-0
[42] = tested on: HOP-62
[43] = tested on: HCC 2998
[44] = tested on: UACC-62
[45] = tested on: RPMI-8226
[46] = tested on: T47D
[47] = tested on: MOLT-4
[48] = tested on: CCRF-CEM
[49] = tested on: LOX IMVI
[50] = tested on: MCF7
[51] = tested on: UACC-257
[52] = tested on: K562
[53] = tested on: Malme-3M
[54] = tested on: SK-MEL-2
[55] = tested on: HL-60

SMILES: CSc1ccc(C(=C=C=C(c2ccc(SC)s2)c2ccc(SC)s2)c2ccc(SC)s2)s1
- GI50 [1]: > 10 µM (inactive)
- GI50 [2]: > 10 µM (inactive)
- GI50 [3]: > 10 µM (inactive)
- GI50 [4]: > 10 µM
- GI50 [5]: > 10 µM (inactive)
- GI50 [6]: > 10 µM (inactive)
- GI50 [7]: > 10 µM (inactive)
- GI50 [8]: > 10 µM (inactive)
- GI50 [9]: > 10 µM (inactive)
- GI50 [10]: > 10 µM (inactive)
- GI50 [11]: > 10 µM (inactive)
- GI50 [12]: > 10 µM (inactive)
- GI50 [13]: > 10 µM (inactive)
- GI50 [14]: > 10 µM (inactive)
- GI50 [15]: > 10 µM (inactive)
- GI50 [16]: > 10 µM (inactive)
- GI50 [17]: > 10 µM (inactive)
- GI50 [18]: > 10 µM (inactive)
- GI50 [19]: > 10 µM (inactive)
- GI50 [20]: > 10 µM (inactive)
- GI50 [21]: > 10 µM (inactive)
- GI50 [22]: > 10 µM (inactive)
- GI50 [23]: > 10 µM (inactive)
- GI50 [24]: > 10 µM (inactive)
- GI50 [25]: > 10 µM (inactive)
- GI50 [26]: > 10 µM (inactive)
- GI50 [27]: > 10 µM (inactive)
- GI50 [28]: > 10 µM (inactive)
- GI50 [29]: > 10 µM (inactive)
- GI50 [30]: > 10 µM (inactive)
- GI50 [31]: > 10 µM (inactive)
- GI50 [32]: > 10 µM (inactive)
- GI50 [33]: > 10 µM (inactive)
- GI50 [34]: > 10 µM (inactive)
- GI50 [35]: > 10 µM (inactive)
- GI50 [36]: > 10 µM (inactive)
- GI50 [37]: > 10 µM (inactive)
- GI50 [38]: > 10 µM (inactive)

SMILES: NNC(=O)Nc1cccnc1
- GI50 [39]: > 100 µM (inactive)
- GI50 [1]: > 100 µM (inactive)
- GI50 [2]: > 100 µM (inactive)
- GI50 [3]: > 100 µM (inactive)
- GI50 [4]: > 100 µM
- GI50 [5]: > 100 µM (inactive)
- GI50 [40]: > 100 µM (inactive)
- GI50 [41]: > 100 µM (inactive)
- GI50 [42]: > 100 µM (inactive)
- GI50 [43]: > 100 µM (inactive)
- GI50 [6]: > 100 µM (inactive)
- GI50 [44]: > 100 µM (inactive)
- GI50 [45]: > 100 µM (inactive)
- GI50 [7]: > 100 µM (inactive)
- GI50 [46]: > 100 µM (inactive)
- GI50 [8]: > 100 µM (inactive)
- GI50 [9]: > 100 µM (inactive)
- GI50 [10]: > 100 µM (inactive)
- GI50 [47]: > 10 µM (inactive)
- GI50 [11]: > 100 µM (inactive)
- GI50 [12]: > 100 µM (inactive)
- GI50 [13]: > 100 µM (inactive)
- GI50 [14]: > 100 µM (inactive)
- GI50 [15]: > 100 µM (inactive)
- GI50 [48]: > 100 µM (inactive)
- GI50 [17]: > 100 µM (inactive)
- GI50 [49]: > 100 µM (inactive)
- GI50 [18]: > 100 µM (inactive)
- GI50 [19]: > 100 µM (inactive)
- GI50 [50]: > 100 µM (inactive)
- GI50 [20]: > 100 µM (inactive)
- GI50 [21]: > 100 µM (inactive)
- GI50 [51]: > 100 µM (inactive)
- GI50 [22]: > 100 µM (inactive)
- GI50 [23]: > 100 µM (inactive)
- GI50 [24]: > 100 µM (inactive)
- GI50 [25]: > 100 µM (inactive)
- GI50 [26]: > 100 µM (inactive)
- GI50 [27]: > 100 µM (inactive)
- GI50 [52]: > 100 µM (inactive)
- GI50 [28]: > 100 µM (inactive)
- GI50 [29]: > 100 µM (inactive)
- GI50 [30]: > 100 µM (inactive)
- GI50 [53]: > 100 µM (inactive)
- GI50 [31]: > 100 µM (inactive)
- GI50 [54]: > 100 µM (inactive)
- GI50 [55]: > 100 µM (inactive)
- GI50 [32]: > 100 µM (inactive)
- GI50 [33]: > 100 µM (inactive)
- GI50 [34]: > 100 µM (inactive)
- GI50 [35]: > 100 µM (inactive)
- GI50 [36]: > 100 µM (inactive)
- GI50 [37]: > 100 µM (inactive)
- GI50 [38]: > 100 µM (inactive)
